Data published in patent US20250122192A1, “5-PYRIMIDINECARBOXAMIDE DERIVATIVES AND METHODS OF USING THE SAME” (Rgenta Therapeutics, Inc., priority 2021, published 2025).

System: PMS1
Experiment: Mini-gene reporter assay-PMS1
Assay type: cell-based
Conditions: Homo sapiens, HEK293, PMS1 mini-gene firefly luciferase reporter transiently transfected into HEK293 cells; read-out: PMS1 IC50
Source text: Biological Activity of the Compounds of the Present Disclosure Mini-gene reporter assay-PMS1
Mini-gene reporter constructs for each target site can be constructed by first PCR amplifying the region-of-interest including the sequence of the alternatively skipped, sequences of the immediate upstream and downstream introns, and sequences of the immediate upstream and downstream exons. Then the 3′end of the amplified sequence can be ligated to a firefly luciferase reporter gene and cloned into the pcDNA3.1 vector backbone. The final reporter construct can be transiently transfected into HEK293 cells using Lipofectamine 3000 transfection reagents. Compounds that can induce the inclusion of the skipped exon in the reporter construct would increase the reporter firefly luciferase activity.
Test compounds may be diluted in duplicates and dispensed into an assay plate. Transient mini-gene reporter cell line stock is resuspended and dispensed into the assay plate. Assay plates are then centrifuged and incubated. A luciferase reagent (e.g. ONE-Glo firefly luciferase reagent from Promega®) may be added to the assay plate and the luminescence (RLU) signals recorded. PMS1 EC50 values may be determined by curve fitting in Levenberg-Marquardt algorithm.

IC50 [nM]	Compound
> 3000	CCOc1nc(N2CC3CCNCC32)ncc1C(=O)Nc1cn2cc(C)nc2c(C)n1 (stereo not shown) [Compound 48]
< 500	CCOc1nc(N2CCCC3CNCCC32)ncc1C(=O)Nc1cn2cc(C)nc2c(C)n1 (stereo not shown) [Compound 49]
< 500	CCOc1nc(N2CC3(CCNC3)C2)ncc1C(=O)Nc1cn2cc(C)nc2c(C)n1 [Compound 51]
> 3000	CCOc1nc(N2CC(C3CNC3)C2)ncc1C(=O)Nc1cn2cc(C)nc2c(C)n1 [Compound 52]
500 to 1000	CCOc1nc(N2CC3CCC2CN3)ncc1C(=O)Nc1cn2cc(C)nc2c(C)n1 (stereo not shown) [Compound 53]
< 500	CCOc1nc(N2CCC3(CCCN3)CC2)ncc1C(=O)Nc1cn2cc(C)nc2c(C)n1 [Compound 54]
> 3000	CCOc1nc(N2C[C@@H]3C[C@H]2CN3)ncc1C(=O)Nc1cn2cc(C)nc2c(C)n1 [Compound 55]
500 to 1000	CCOc1nc(N2CCC(CNC(C)C)CC2)ncc1C(=O)Nc1cn2cc(C)nc2c(C)n1 [Compound 58]
< 500	CCOc1nc(N2CC(C3CCCCCN3)C2)ncc1C(=O)Nc1cn2cc(C)nc2c(C)n1 (stereo not shown) [Compound 59]
> 3000	CCOc1nc(N2CCC3(CC2)COC(C)CN3)ncc1C(=O)Nc1cn2cc(C)nc2c(C)n1 (stereo not shown) [Compound 61]
< 500	CCOc1nc(N2CCC(CNC)C2)ncc1C(=O)Nc1cn2cc(C)nc2c(C)n1 (stereo not shown) [Compound 62]
500 to 1000	CCOc1nc(N2CCNC(CC)C2)ncc1C(=O)Nc1cn2cc(C)nc2c(C)n1 (stereo not shown) [Compound 63]
< 500	CCOc1nc(N2CCC3(CCN3)CC2)ncc1C(=O)Nc1cn2cc(C)nc2c(C)n1 [Compound 64]
500 to 1000	CCOc1nc(N2CCN[C@@H](C(C)C)C2)ncc1C(=O)Nc1cn2cc(C)nc2c(C)n1 [Compound 65]
500 to 1000	CCOc1nc(N2C[C@@H](C)N[C@@H](C)C2)ncc1C(=O)Nc1cn2cc(C)nc2c(C)n1 [Compound 67]
> 3000	CCOc1nc(N2CC3(CCNCC3)CC2C)ncc1C(=O)Nc1cn2cc(C)nc2c(C)n1 (stereo not shown) [Compound 68]
< 500	CCNC1CCN(c2ncc(C(=O)Nc3cn4cc(C)nc4c(C)n3)c(OCC)n2)C1 (stereo not shown) [Compound 70]
500 to 1000	CCOc1nc(N2CCNC(C)CC2)ncc1C(=O)Nc1cn2cc(C)nc2c(C)n1 (stereo not shown) [Compound 71]

IC50 [nM]	Compound
500 to 1000	CCOc1nc(N2CCC(C3CCCN3)CC2)ncc1C(=O)Nc1cn2cc(C)nc2c(C)n1 (stereo not shown) [Compound 73]
> 3000	CCOc1nc(N2CCC(NCC3CC3)CC2)ncc1C(=O)Nc1cn2cc(C)nc2c(C)n1 [Compound 74]
< 500	CCOc1nc(N2CCC(CNC)CC2)ncc1C(=O)Nc1cn2cc(C)nc2c(C)n1 [Compound 76]
< 500	CCOc1nc(N2CC3CNCCC32)ncc1C(=O)Nc1cn2cc(C)nc2c(C)n1 (stereo not shown) [Compound 77]
< 500	CCOc1nc(N2CCC3(CNC3)C2)ncc1C(=O)Nc1cn2cc(C)nc2c(C)n1 [Compound 78]
< 500	CCOc1nc(N2CCC3(CCNC3)C2)ncc1C(=O)Nc1cn2cc(C)nc2c(C)n1 (stereo not shown) [Compound 80]
1000 to 3000	CCOc1nc(N(C)C2CCNC2)ncc1C(=O)Nc1cn2cc(C)nc2c(C)n1 (stereo not shown) [Compound 81]
1000 to 3000	CCOc1nc(N2CCC3(CCN3)C2)ncc1C(=O)Nc1cn2cc(C)nc2c(C)n1 (stereo not shown) [Compound 82]
< 500	CCOc1nc(N2C[C@H]3CNC[C@H]3C2)ncc1C(=O)Nc1cn2cc(C)nc2c(C)n1 [Compound 84]
> 3000	CCOc1nc(N2CC3CNC(C3)C2)ncc1C(=O)Nc1cn2cc(C)nc2c(C)n1 (stereo not shown) [Compound 85]
< 500	CCOc1nc(N2CCC3(CC2)CNC3)ncc1C(=O)Nc1cn2cc(C)nc2c(C)n1 [Compound 86]
1000 to 3000	CCOc1nc(N2CC3(CCCNC3)C2)ncc1C(=O)Nc1cn2cc(C)nc2c(C)n1 [Compound 87]
< 500	CCOc1nc(N2CCC3(CCNCC3)C2)ncc1C(=O)Nc1cn2cc(C)nc2c(C)n1 [Compound 88]
> 3000	CCOc1nc(N2CCC3(CCNC3)CC2)ncc1C(=O)Nc1cn2cc(C)nc2c(C)n1 [Compound 89]
1000 to 3000	CCOc1nc(N2CCNCC3(CC3)C2)ncc1C(=O)Nc1cn2cc(C)nc2c(C)n1 [Compound 92]
> 3000	CCOc1nc(N2CCC3(CC2)COCCN3)ncc1C(=O)Nc1cn2cc(C)nc2c(C)n1 [Compound 94]
1000 to 3000	CCOc1nc(N2CCC3(CCCCN3)C2)ncc1C(=O)Nc1cn2cc(C)nc2c(C)n1 (stereo not shown) [Compound 96]
1000 to 3000	CCOc1nc(N2CC3CCC2C2CNCC32)ncc1C(=O)Nc1cn2cc(C)nc2c(C)n1 (stereo not shown) [Compound 97]

Further lines, the compound ahead of its results:

Compound	IC50 [nM]
CCOc1nc(N2CC3CNCC3C2)ncc1C(=O)Nc1cn2cc(C)nc2c(C)n1 (stereo not shown) [Compound 20, N-{2,8-dimethylimidazo[1,2-a]pyrazin-6-yl}-4-ethoxy-2-{octahydropyrrolo[3,4-c]pyrrol-2-yl}pyrimidine-5-carboxamide]	< 500
Cc1cn2cc(NC(=O)c3cnc(N4CCNCC4)nc3)cc(F)c2n1 [Compound 21, N-{8-fluoro-2-methylimidazo[1,2-a]pyridin-6-yl}-2-(piperazin-1-yl)pyrimidine-5-carboxamide]	1000 to 3000
COc1nc(N2CC3CNCC3C2)ncc1C(=O)Nc1cn2cc(C)nc2c(C)n1 (stereo not shown) [Compound 22, N-{2,8-dimethylimidazo[1,2-a]pyrazin-6-yl}-4-methoxy-2-{octahydropyrrolo[3,4-c]pyrrol-2-yl}pyrimidine-5-carboxamide]	< 500
CCOc1nc(N2CCNC3CCCCC32)ncc1C(=O)Nc1cn2cc(C)nc2c(C)n1 (stereo not shown) [Compound 23]	> 3000
CCOc1nc(N2CCNCC2)ncc1C(=O)Nc1ccc2nn(C)cc2c1 [Compound 25, 4-ethoxy-N-(2-methyl-2H-indazol-5-yl)-2-(piperazin-1-yl)pyrimidine-5-carboxamide]	1000 to 3000
CCOc1nc(N2CCNCC2)ncc1C(=O)Nc1cc(F)c2nn(C)cc2c1 [Compound 26, 4-ethoxy-N-(7-fluoro-2-methyl-2H-indazol-5-yl)-2-(piperazin-1-yl)pyrimidine-5-carboxamide]	500 to 1000
CCOc1nc(N2CCNCC2)ncc1C(=O)Nc1cc(OC)c2nc(C)cn2c1 [Compound 27, 4-ethoxy-N-{8-methoxy-2-methylimidazo[1,2-a]pyridin-6-yl}-2-(piperazin-1-yl)pyrimidine-5-carboxamide]	500 to 1000
CCOc1nc(N2CC3CNCC3C2)ncc1C(=O)Nc1cn2cc(C)nc2cn1 (stereo not shown) [Compound 28, 4-ethoxy-N-{2-methylimidazo[1,2-a]pyrazin-6-yl}-2-{octahydropyrrolo[3,4-c]pyrrol-2-yl}pyrimidine-5-carboxamide]	1000 to 3000
CCOc1nc(N2CC(C)NCC2C)ncc1C(=O)Nc1cn2cc(C)nc2c(C)n1 (stereo not shown) [Compound 32]	1000 to 3000
CCOc1nc(N2CC3(CC(NC)CO3)C2)ncc1C(=O)Nc1cn2cc(C)nc2c(C)n1 (stereo not shown) [Compound 33]	> 3000
CCOc1nc(N2CCCC(C3CCCCN3)C2)ncc1C(=O)Nc1cn2cc(C)nc2c(C)n1 (stereo not shown) [Compound 34]	> 3000
CCOc1nc(N2CCNC(C)C2C)ncc1C(=O)Nc1cn2cc(C)nc2c(C)n1 (stereo not shown) [Compound 35]	> 3000
CCN(c1ncc(C(=O)Nc2cn3cc(C)nc3c(C)n2)c(COC)n1)C1CCNCC1 [Compound 36]	< 500
CCOc1nc(N(C)C2CC3CCC(C2)N3)ncc1C(=O)Nc1cn2cc(C)nc2c(C)n1 (stereo not shown) [Compound 37]	< 500
CCOc1nc(N2CCC(C3CCCN3)C2)ncc1C(=O)Nc1cn2cc(C)nc2c(C)n1 (stereo not shown) [Compound 38]	1000 to 3000
CCOc1nc(N2CCC(NC)CC2)ncc1C(=O)Nc1cn2cc(C)nc2c(C)n1 [Compound 39]	< 500
CCOc1nc(N2CCNCCC2C)ncc1C(=O)Nc1cn2cc(C)nc2c(C)n1 (stereo not shown) [Compound 40]	1000 to 3000
CCOc1nc(N2CCNCC2C)ncc1C(=O)Nc1cn2cc(C)nc2c(C)n1 (stereo not shown) [Compound 42]	500 to 1000
CCOc1nc(N2CC(NC)C2)ncc1C(=O)Nc1cn2cc(C)nc2c(C)n1 [Compound 43]	> 3000
CCOc1nc(N2CC3C4CCC(NC4)C3C2)ncc1C(=O)Nc1cn2cc(C)nc2c(C)n1 (stereo not shown) [Compound 44]	1000 to 3000
CCNC1COC2(C1)CN(c1ncc(C(=O)Nc3cn4cc(C)nc4c(C)n3)c(OCC)n1)C2 (stereo not shown) [Compound 45]	> 3000
CCOc1nc(N(C)C2CCCNCC2)ncc1C(=O)Nc1cn2cc(C)nc2c(C)n1 (stereo not shown) [Compound 46]	< 500
CCOc1nc(N(C)[C@@H]2C[C@H]3CC[C@@H](C2)N3)ncc1C(=O)Nc1cn2cc(C)nc2c(C)n1 [Compound 56]	500 to 1000
CCOc1nc(N(C)C2CCNCC2)ncc1C(=O)Nc1cn2cc(C)nc2c(C)n1 [Compound 57]	< 500

Same assay, conditions: Homo sapiens; at 5 μM; PMS1 mini-gene firefly luciferase reporter in HEK293 cells; read-out: PMS1% Effect at 5 μM

Compound	activation at 5 µM [%]
CCOc1nc(N2CC3(CCN3)C2)ncc1C(=O)Nc1cn2cc(C)nc2c(C)n1 [Compound 24]	50 to 75
CCOc1nc(N2CCNC3CC32)ncc1C(=O)Nc1cn2cc(C)nc2c(C)n1 (stereo not shown) [Compound 47]	< 50
CCOc1nc(N2CC(CO)C3(CNC3)C2)ncc1C(=O)Nc1cn2cc(C)nc2c(C)n1 (stereo not shown) [Compound 50]	< 50
CCOc1nc(N2CCC(C3(O)CCNCC3)CC2)ncc1C(=O)Nc1cn2cc(C)nc2c(C)n1 [Compound 66]	< 50
CCOc1nc(N2CC(C3CCNC3)C2)ncc1C(=O)Nc1cn2cc(C)nc2c(C)n1 (stereo not shown) [Compound 69]	50 to 75
CCOc1nc(N2CCC(C3(O)CNC3)CC2)ncc1C(=O)Nc1cn2cc(C)nc2c(C)n1 [Compound 75]	< 50
CCOc1nc(N2CC(CO)C3(CCNCC3)C2)ncc1C(=O)Nc1cn2cc(C)nc2c(C)n1 (stereo not shown) [Compound 91]	< 50
